# Results published in patent US20260000642A1 (Tay Therapeutics Limited, priority 2022, published 2026).
# Several values for one entry are separate records, joined by “and”; a condition that tells them apart may be missing. Identical values can stand only once.
# Tested on: collagen-induced arthritis in Lewis rats
# Experiment: Collagen-induced arthritis (CIA) model in rats: body weight, paw volume, clinical scores, clinical observations
# Conditions: for Animal body weight percent change / Animal body weight: Group 5 (CIA + Example 101 3 mg/kg)
# [1] = Day 1, individual animals, 3 mg/kg
# [2] = Day 3, individual animals, 3 mg/kg
# [3] = Day 7, individual animals, 3 mg/kg
smiles,measurement,setting,value
"CNC(=O)c1[nH]c(C(=O)NC2CCC2)cc1O[C@@H](C)c1ccccc1 [Example 101, N^5-cyclobutyl-N^2-methyl-3-(1-phenylethoxy)-1H-pyrrole-2,5-dicarboxamide]",Average animal body weight percent change,"Day 12, CIA + 30 mg/kg",0.66%
same,Mean animal body weight,"Day 12, CIA + 30 mg/kg",163 g
same,Average animal body weight percent change,"Day 13, CIA + 3 mg/kg",7.74%
same,Mean animal body weight,"Day 13, CIA + 3 mg/kg",178 g
same,Average animal body weight percent change,"Day 13, CIA + 10 mg/kg",3.92%
same,Mean animal body weight,"Day 13, CIA + 10 mg/kg",169 g
same,Average animal body weight percent change,"Day 13, CIA + 30 mg/kg",0.18%
same,Mean animal body weight,"Day 13, CIA + 30 mg/kg",162 g
same,Average animal body weight percent change,"Day 14, CIA + 3 mg/kg",7.08%
same,Mean animal body weight,"Day 14, CIA + 3 mg/kg",177 g
same,Average animal body weight percent change,"Day 14, CIA + 10 mg/kg",4.05%
same,Mean animal body weight,"Day 14, CIA + 10 mg/kg",169 g
same,Average animal body weight percent change,"Day 14, CIA + 30 mg/kg",1.42%
same,Mean animal body weight,"Day 14, CIA + 30 mg/kg",164 g
same,Average animal body weight percent change,"Day 15, CIA + 3 mg/kg",5.15%
same,Mean animal body weight,"Day 15, CIA + 3 mg/kg",173 g
same,Average animal body weight percent change,"Day 15, CIA + 10 mg/kg",3.31%
same,Mean animal body weight,"Day 15, CIA + 10 mg/kg",168 g
same,Average animal body weight percent change,"Day 15, CIA + 30 mg/kg",2.38%
same,Mean animal body weight,"Day 15, CIA + 30 mg/kg",166 g
same,Average animal body weight percent change,"Day 16, CIA + 3 mg/kg",3.90%
same,Mean animal body weight,"Day 16, CIA + 3 mg/kg",171 g
same,Average animal body weight percent change,"Day 16, CIA + 10 mg/kg",2.23%
same,Mean animal body weight,"Day 16, CIA + 10 mg/kg",166 g
same,Average animal body weight percent change,"Day 16, CIA + 30 mg/kg",1.69%
same,Mean animal body weight,"Day 16, CIA + 30 mg/kg",165 g
same,Average animal body weight percent change,"Day 17, CIA + 3 mg/kg",3.37%
same,Mean animal body weight,"Day 17, CIA + 3 mg/kg",170 g
same,Average animal body weight percent change,"Day 17, CIA + 10 mg/kg",2.29%
same,Mean animal body weight,"Day 17, CIA + 10 mg/kg",166 g
same,Average animal body weight percent change,"Day 17, CIA + 30 mg/kg",1.41%
same,Mean animal body weight,"Day 17, CIA + 30 mg/kg",164 g
same,Average animal body weight percent change,"Day 18, CIA + 3 mg/kg",2.36%
same,Mean animal body weight,"Day 18, CIA + 3 mg/kg",169 g
same,Average animal body weight percent change,"Day 18, CIA + 10 mg/kg",1.38%
same,Mean animal body weight,"Day 18, CIA + 10 mg/kg",165 g
same,Average animal body weight percent change,"Day 18, CIA + 30 mg/kg",1.61%
same,Mean animal body weight,"Day 18, CIA + 30 mg/kg",165 g
same,Average animal body weight percent change,"Day 19, CIA + 3 mg/kg",0.91%
same,Mean animal body weight,"Day 19, CIA + 3 mg/kg",166 g
same,Average animal body weight percent change,"Day 19, CIA + 10 mg/kg",0.76%
same,Mean animal body weight,"Day 19, CIA + 10 mg/kg",164 g
same,Average animal body weight percent change,"Day 19, CIA + 30 mg/kg",1.24%
same,Mean animal body weight,"Day 19, CIA + 30 mg/kg",164 g
same,Average animal body weight percent change,"Day 20, CIA + 3 mg/kg",1.13%
same,Mean animal body weight,"Day 20, CIA + 3 mg/kg",167 g
same,Average animal body weight percent change,"Day 20, CIA + 10 mg/kg",1.30%
same,Mean animal body weight,"Day 20, CIA + 10 mg/kg",164 g
same,Average animal body weight percent change,"Day 20, CIA + 30 mg/kg",0.50%
same,Mean animal body weight,"Day 20, CIA + 30 mg/kg",163 g
same,Average animal body weight percent change,"Day 21, CIA + 3 mg/kg",1.73%
same,Mean animal body weight,"Day 21, CIA + 3 mg/kg",168 g
same,Average animal body weight percent change,"Day 21, CIA + 10 mg/kg",0.53%
same,Mean animal body weight,"Day 21, CIA + 10 mg/kg",163 g
same,Average animal body weight percent change,"Day 21, CIA + 30 mg/kg",0.50%
same,Mean animal body weight,"Day 21, CIA + 30 mg/kg",163 g
same,Animal body weight percent change,"Day 0, individual animals",0.00%
same,Animal body weight,[1],170 g
same,Animal body weight percent change,[1],−0.58% and 0.65%
same,Animal body weight percent change,"Day 2, individual animals, 3 mg/kg",0.62% and 0.56% and −1.20%
same,Animal body weight,[2],160 g and 170 g
same,Animal body weight percent change,[2],−0.62% and −1.13% and −0.60%
same,Animal body weight,"Day 4, individual animals, 3 mg/kg",170 g
same,Animal body weight percent change,"Day 5, individual animals, 3 mg/kg",0.00%
same,Animal body weight,"Day 6, individual animals, 3 mg/kg",180 g and 160 g
same,Animal body weight,[3],160 g and 180 g
same,Animal body weight percent change,[3],0.63%
same,Animal body weight,"Day 8, individual animals, 3 mg/kg",160 g
same,Animal body weight,"Day 9, individual animals, 3 mg/kg",170 g
same,Animal body weight percent change,"Day 10, individual animals, 3 mg/kg",9.70%
same,Animal body weight,"Day 11, individual animals, 3 mg/kg",180 g
